Data on 18 compounds can be found in the supplement of paper PMC8967900.

Structures are written as SMILES.
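Also: ALL cell lines in 384-well plates, five doses spanning 10,000-fold, each plate scaled between vehicle and 100 µmol/L benzalkonium chloride controls, sDSS an adapted area-under-curve metric.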

One test has as its system MN-60. The experiment in a line: selective drug sensitivity score (sDSS, relative to normal bone marrow) (sDSS (score)); higher = more potent and effective on the cell line relative to normal bone marrow cells. The note with it: 72 h.
Take `COC12C(COC(N)=O)C3=C(C(=O)C(C)=C(N)C3=O)N1CC1NC12` (stereo in doubt) [Mitomycin_C] (top concentration 10000 nM): the “selective drug sensitivity score” value was -2.86.

For the compound `Cc1c(-c2c(-c3ccc(F)o3)sc3ncnc(O[C@H](Cc4ccccc4OCc4ccnn4CC(F)(F)F)C(=O)O)c23)ccc(OCCN2CCN(C)CC2)c1Cl` (top concentration 1000 nM), the “selective drug sensitivity score” value was -7.74.

`Cc1ncc(Cl)cc1NCc1ccc(C(=O)N[C@@H](CC2CCCC2)C(=O)NC2CC2)s1` (top concentration 5000 nM): the “selective drug sensitivity score” value was -0.94.

On to `CCn1c(-c2nonc2N)nc2c(C#CC(C)(C)O)ncc(OC[C@H]3CCCNC3)c21` (top concentration 10000 nM), for which the “selective drug sensitivity score” value worked out at 0.08.

For `CN(c1ncccc1CNc1nc(Nc2ccc3c(c2)CC(=O)N3)ncc1C(F)(F)F)S(C)(=O)=O` (top concentration 10000 nM), the “selective drug sensitivity score” value is -1.08.

As for `CNc1ncc2cc(-c3cc(NC(=O)NCCC(C)(C)C)c(F)cc3C)c(C)nc2n1` (top concentration 10000 nM), the “selective drug sensitivity score” value was -0.94.

Turning to `C[C@@]1(C(=O)Nc2ccc(F)nc2)CCCN1c1nc(Nc2cc(C3CC3)n[nH]2)c2cccn2n1` (top concentration 10000 nM), the “selective drug sensitivity score” value is -4.62.

`Cc1nc(Nc2n[nH]c3c2CN(C(=O)N[C@H](CN(C)C)c2ccccc2)C3(C)C)c2sccc2n1` (top concentration 10000 nM): the “selective drug sensitivity score” value came to 5.08.

For `Cn1cc(-c2[nH]c3cc(NC(=O)[C@H](N)C4CCCCC4)cc4c3c2C=NNC4=O)cn1` (top concentration 10000 nM), the “selective drug sensitivity score” value is -1.82.

Consider `Cn1cc(-c2ccc(F)c(C(F)(F)F)c2)nc1C1CCN(c2ncnc3[nH]ncc23)CC1` (top concentration 10000 nM), for which the “selective drug sensitivity score” value was -0.14.

As for `O=C(Nc1ccc2[nH]nc(-c3ccncc3)c2c1)[C@@H]1CCN(CC(=O)N2CCN(c3ccc(-c4ncccn4)cc3)CC2)C1` (top concentration 10000 nM), the “selective drug sensitivity score” value was -3.64.

As for `CC(C)(C)c1cc(NC(=O)Nc2ccc(Oc3ccnc4[nH]c(=O)cnc34)cc2F)n(-c2ccccc2)n1` (top concentration 25000 nM), the “selective drug sensitivity score” value came out at 0.42.

On to `Nc1ncnc2c1nc(N)n2[C@@H]1O[C@H](CO)[C@@H](O)[C@H]1O` [8-amino-adenosine] (top concentration 50000 nM), for which the “selective drug sensitivity score” value was 1.58.

In the case of `CC(C)[C@@H](CS(=O)(=O)C(C)C)N1C(=O)[C@@](C)(CC(=O)O)C[C@H](c2cccc(Cl)c2)[C@H]1c1ccc(Cl)cc1` [AMG-232] (top concentration 10000 nM), the “selective drug sensitivity score” value turned out to be 3.16.

Regarding `CC(C)[C@H](C(=O)Nc1ccc(C(=O)NO)cc1)c1ccccc1` [AR-42] (top concentration 10000 nM), the “selective drug sensitivity score” value amounted to 1.48.

With `O=C(Nc1c[nH]nc1-c1nc2ccc(CN3CCOCC3)cc2[nH]1)NC1CC1` [AT9283] (top concentration 1000 nM), the “selective drug sensitivity score” value is 1.02.

For `CCN(CCO)CCCOc1ccc2c(Nc3cc(CC(=O)Nc4cccc(F)c4)[nH]n3)ncnc2c1` [AZD1152-HQPA] (top concentration 1000 nM), the “selective drug sensitivity score” value was -2.46.

On to `Cc1[nH]nc(C(F)(F)F)c1Cc1sc2c(c1C(=O)N1C[C@](C)(O)CO1)c(=O)n(C)c(=O)n2C(C)C` [AZD3965] (top concentration 1000 nM), for which the “selective drug sensitivity score” value amounted to 0.9.

Another test has as its system PEER. The description is as above. The note with it: 72 h.
Consider `COC12C(COC(N)=O)C3=C(C(=O)C(C)=C(N)C3=O)N1CC1NC12` (stereo in doubt) [Mitomycin_C] (top concentration 10000 nM), for which the “selective drug sensitivity score” value was -2.86.

Turning to `Cc1c(-c2c(-c3ccc(F)o3)sc3ncnc(O[C@H](Cc4ccccc4OCc4ccnn4CC(F)(F)F)C(=O)O)c23)ccc(OCCN2CCN(C)CC2)c1Cl` (top concentration 1000 nM), the “selective drug sensitivity score” value was -0.14.

With `Cc1ncc(Cl)cc1NCc1ccc(C(=O)N[C@@H](CC2CCCC2)C(=O)NC2CC2)s1` (top concentration 5000 nM), the “selective drug sensitivity score” value was -0.24.

For the compound `CCn1c(-c2nonc2N)nc2c(C#CC(C)(C)O)ncc(OC[C@H]3CCCNC3)c21` (top concentration 10000 nM), the “selective drug sensitivity score” value was 1.68.

`CN(c1ncccc1CNc1nc(Nc2ccc3c(c2)CC(=O)N3)ncc1C(F)(F)F)S(C)(=O)=O` (top concentration 10000 nM): the “selective drug sensitivity score” value was determined as 7.22.

In the case of `CNc1ncc2cc(-c3cc(NC(=O)NCCC(C)(C)C)c(F)cc3C)c(C)nc2n1` (top concentration 10000 nM), the “selective drug sensitivity score” value came out at 15.

In the case of `C[C@@]1(C(=O)Nc2ccc(F)nc2)CCCN1c1nc(Nc2cc(C3CC3)n[nH]2)c2cccn2n1` (top concentration 10000 nM), the “selective drug sensitivity score” value came out at 11.2.

As for `Cc1nc(Nc2n[nH]c3c2CN(C(=O)N[C@H](CN(C)C)c2ccccc2)C3(C)C)c2sccc2n1` (top concentration 10000 nM), the “selective drug sensitivity score” value is -3.12.

As for `Cn1cc(-c2[nH]c3cc(NC(=O)[C@H](N)C4CCCCC4)cc4c3c2C=NNC4=O)cn1` (top concentration 10000 nM), the “selective drug sensitivity score” value came out at 5.68.

Regarding `Cn1cc(-c2ccc(F)c(C(F)(F)F)c2)nc1C1CCN(c2ncnc3[nH]ncc23)CC1` (top concentration 10000 nM), the “selective drug sensitivity score” value came out at 1.66.

Take `O=C(Nc1ccc2[nH]nc(-c3ccncc3)c2c1)[C@@H]1CCN(CC(=O)N2CCN(c3ccc(-c4ncccn4)cc3)CC2)C1` (top concentration 10000 nM): the “selective drug sensitivity score” value was determined as 2.16.

For `CC(C)(C)c1cc(NC(=O)Nc2ccc(Oc3ccnc4[nH]c(=O)cnc34)cc2F)n(-c2ccccc2)n1` (top concentration 25000 nM), the “selective drug sensitivity score” value is 5.32.

With `Nc1ncnc2c1nc(N)n2[C@@H]1O[C@H](CO)[C@@H](O)[C@H]1O` [8-amino-adenosine] (top concentration 50000 nM), the “selective drug sensitivity score” value is 5.98.

`CC(C)[C@@H](CS(=O)(=O)C(C)C)N1C(=O)[C@@](C)(CC(=O)O)C[C@H](c2cccc(Cl)c2)[C@H]1c1ccc(Cl)cc1` [AMG-232] (top concentration 10000 nM): the “selective drug sensitivity score” value is -6.94.

Regarding `CC(C)[C@H](C(=O)Nc1ccc(C(=O)NO)cc1)c1ccccc1` [AR-42] (top concentration 10000 nM), the “selective drug sensitivity score” value amounted to 9.18.

`O=C(Nc1c[nH]nc1-c1nc2ccc(CN3CCOCC3)cc2[nH]1)NC1CC1` [AT9283] (top concentration 1000 nM): the “selective drug sensitivity score” value is 15.9.

In the case of `CCN(CCO)CCCOc1ccc2c(Nc3cc(CC(=O)Nc4cccc(F)c4)[nH]n3)ncnc2c1` [AZD1152-HQPA] (top concentration 1000 nM), the “selective drug sensitivity score” value amounted to 21.8.

Regarding `Cc1[nH]nc(C(F)(F)F)c1Cc1sc2c(c1C(=O)N1C[C@](C)(O)CO1)c(=O)n(C)c(=O)n2C(C)C` [AZD3965] (top concentration 1000 nM), the “selective drug sensitivity score” value stood at 0.

For a further test, the system named is 380. Described as above. The note with it: 72 h.
On to `COC12C(COC(N)=O)C3=C(C(=O)C(C)=C(N)C3=O)N1CC1NC12` (stereo in doubt) [Mitomycin_C] (top concentration 10000 nM), for which the “selective drug sensitivity score” value is -1.36.

With `Cc1c(-c2c(-c3ccc(F)o3)sc3ncnc(O[C@H](Cc4ccccc4OCc4ccnn4CC(F)(F)F)C(=O)O)c23)ccc(OCCN2CCN(C)CC2)c1Cl` (top concentration 1000 nM), the “selective drug sensitivity score” value was 0.86.

Regarding `Cc1ncc(Cl)cc1NCc1ccc(C(=O)N[C@@H](CC2CCCC2)C(=O)NC2CC2)s1` (top concentration 5000 nM), the “selective drug sensitivity score” value was 9.86.

In the case of `CCn1c(-c2nonc2N)nc2c(C#CC(C)(C)O)ncc(OC[C@H]3CCCNC3)c21` (top concentration 10000 nM), the “selective drug sensitivity score” value came to 8.58.

Regarding `CN(c1ncccc1CNc1nc(Nc2ccc3c(c2)CC(=O)N3)ncc1C(F)(F)F)S(C)(=O)=O` (top concentration 10000 nM), the “selective drug sensitivity score” value stood at 4.02.

In the case of `CNc1ncc2cc(-c3cc(NC(=O)NCCC(C)(C)C)c(F)cc3C)c(C)nc2n1` (top concentration 10000 nM), the “selective drug sensitivity score” value came to 7.76.

Turning to `C[C@@]1(C(=O)Nc2ccc(F)nc2)CCCN1c1nc(Nc2cc(C3CC3)n[nH]2)c2cccn2n1` (top concentration 10000 nM), the “selective drug sensitivity score” value was found to be 18.1.

Consider `Cc1nc(Nc2n[nH]c3c2CN(C(=O)N[C@H](CN(C)C)c2ccccc2)C3(C)C)c2sccc2n1` (top concentration 10000 nM), for which the “selective drug sensitivity score” value came to 22.2.

On to `Cn1cc(-c2[nH]c3cc(NC(=O)[C@H](N)C4CCCCC4)cc4c3c2C=NNC4=O)cn1` (top concentration 10000 nM), for which the “selective drug sensitivity score” value was determined as 8.68.
